In patent publication US20130022673A1, “ENHANCEMENT OF MAGNESIUM UPTAKE IN MAMMALS” (priority 2003, published 2013):

Experiments:
[1] = oral intake; 'it is believed'; cited from earlier work
[2] = tested on: 'restless legs' and intermittent leg cramps; settings: Week 3-4; scale 0 to 100
Description: A person suffered from ‘restless legs’ and intermittent leg cramps during sleep.
Each week the subject was asked to rate the intensity of the problem on a consistent rating scale with ‘0’ indicating no problem and ‘100’ indicating the most severe expression of the condition.

Row | Compound | fraction of elemental magnesium absorbed for use by the body [1] | Ave. intensity of leg cramp related difficulty [2]
1 | [O]=[Mg] [magnesium oxide] | 3 to 12% | 
2 | choline citrate |  | 83
